Where two headings read alike, the source gives them in different places.

Among the data in patent US20240092739A1, “COMPOUNDS AND METHODS OF USE” (Ferro Therapeutics, Inc, priority 2020, published 2024) are IC50 values, retold here.

The test system of test [1] is SJSA-1 (osteosarcoma) cells. Description: Cell proliferation (Alamar Blue) assay, SJSA-1 cells. The test is classed as cell-based. The note with it: Homo sapiens, 24 h compound treatment. On the procedure:
(§1) Cell viability assay was performed to assess the potency of the compounds in human cancer cell lines 786-0 (renal cell carcinoma) and SJSA-1 (osteosarcoma). Additional cell lines, such as pancreatic cancer cell lines (Panc 02.13, BxPC-3, Panc 12, Panc 02.03, Panc 6.03, PSN-1, HPAC, and Capan-1), prostate cancer cell lines (PC-3, DU145, […], NCI-H660, 1PH1 LNCaP, BM-1604, and MDA PCa 2b), etc., can be tested in a similar method.
(§2) Cells (SJSA-1, 786-0 and A431) were seeded (5000 cells/100 μL/well) in 96-well tissue culture plate and incubated at 37° C./500 CO2 for 16-24 hours. The cells were then treated with compounds (25 μL of 5×). The compound concentrations were 10-0.0005 μM prepared in 3-fold serial dilutions with final DMSO concentration of 1%. The plates were then incubated for 24 h at 37° C./[…] in a moist environment. Then Alamar Blue™ reagent (final concentration 1×-12.5 μL) was added to each well and incubated for 1.5 hours at 37° C./500 CO2. The plates were read on fluorescence reader at 540 nm excitation and 590 nm emission wavelengths. The IC50 values were subsequently determined using a sigmoidal dose-response curve (variable slope) in GraphPad Prism® 5 software. Tables A-3 and B-11 show cell proliferation data for exemplary compounds as described herein.

Test [2] has as its system 786-O (renal cell carcinoma) cells. Description: Cell proliferation (Alamar Blue) assay, 786-O cells. The test is classed as cell-based. To be noted: Homo sapiens, 786-0, 786-O cells, Alamar Blue. On the procedure:
as §1, §2

The subject of a further test is A431 cells. In words: Cell proliferation (Alamar Blue) assay, A431 cells. The test is classed as cell-based. The note with it: Homo sapiens, A-431, A431 cells, Alamar Blue. On the procedure:
as §1, §2

In test [3] the test system is 786-O cells + Ferrastatin-1. Description: GPX4 inhibition assay: cell proliferation (Alamar Blue) in 786-O cells with ferrostatin rescue. The test is classed as cell-based, human. On the procedure:
as §2
Studies have shown that lipophilic antioxidants, such as ferrostatin, can rescue cells from GPX4 inhibition-induced ferroptosis. For instance, mesenchymal state GPX4-knockout cells can survive in the presence of ferrostatin, however, when the supply of ferrostatin is terminated, these cells undergo ferroptosis (see, e.g., Viswanathan et al., Nature 547:453-7, 2017). […] Accordingly, the ability of a molecule to induce ferroptotic cancer cell death, and that such ability is admonished by the addition of ferrostatin, is clear indication that the molecule is an GPX4 inhibitor. Cell proliferation data for exemplary compounds with and without ferrostatin can be seen in Table A-3.

The mark [4] stands for this setting: 24 h compound treatment, read-out: IC50 (μM) 786-O.
Where [5] appears, read: 24 h compound treatment, read-out: IC50 (μM) A431.
Where [6] appears, read: 24 h compound incubation, read-out: Cell proliferation IC50 (μM) A431.
[7] abbreviates: 786-O cells with Ferrastatin-1 (rescue), read-out: Cell proliferation IC50 (μM) 786-O + Ferrastatin-1.
Where [8] appears, read: 24 h compound incubation, read-out: Cell proliferation IC50 (μM) 786-O.
[9] abbreviates: 786-O cells in presence of Ferrastatin-1 (rescue), read-out: IC50 (μM) 786-O + Ferrastatin-1.

On to `C#CC(=O)N1[C@@H](CCCC)Cc2cc(OC)ccc2[C@@H]1c1ccc(NC(=O)c2ccnc(C)c2)cc1` [Compound B-49, N-(4-((1S,3S)-3-butyl-6-methoxy-2-propioloyl-1,2,3,4-tetrahydroisoquinolin-1-yl)phenyl)-2-methylisonicotinamide], for which the IC50 worked out at 0.2 µM in test [1] and 0.037 µM in test [2] (setting [4]).

In the case of `C#CC(=O)N1[C@@H](CCCC)Cc2cc(OC)ccc2[C@@H]1c1ccc(NC2CCC2)cc1` [Compound B-22, 1-((1S,3S)-3-butyl-1-(4-(cyclobutylamino)phenyl)-6-methoxy-3,4-dihydroisoquinolin-2(1H)-yl)prop-2-yn-1-one], the IC50 was 0.05 µM in test [1], 9.96 µM with A431 cells (setting [5]) and 0.041 µM in test [2] (setting [4]).

In the case of `C#CC(=O)N1[C@@H](CCCC)Cc2cc(OC)ccc2[C@@H]1c1ccc(NC(=O)C2CCC2)cc1` [Compound B-20, N-{4-[(1S,3S)-3-butyl-6-methoxy-2-(prop-2-ynoyl)-1,2,3,4-tetrahydroisoquinolin-1-yl]phenyl}cyclobutanecarboxamide], the values for the IC50 (in test [1]; in the test with A431 cells (setting [5]); in test [2] (setting [4])) were 0.021 µM, 6.14 µM and 0.02 µM, respectively.

In the case of `COC[C@H]1Cc2cc(OC)ccc2[C@@H](c2ccc(NC34CC5CC(CC(C5)C3)C4)cc2)N1C(=O)C#C[Si](C)(C)C` [Compound A-5], the IC50 was > 1 µM in the test with A431 cells (setting [6]), > 1 µM in test [3] (setting [7]) and 0.039 µM in test [2] (setting [8]).

`COc1ccc2c(c1)C[C@H](C1CCC1)N(C(=O)C#C[Si](C)(C)C)[C@@H]2c1ccc(NC23CC4CC(CC(C4)C2)C3)cc1` (stereo in doubt) [Compound A-8, 1-((1R,3R)-1-(4-(((3S,5S,7S)-adamantan-1-yl)amino)phenyl)-3-cyclobutyl-6-methoxy-3,4-dihydroisoquinolin-2(1H)-yl)-3-(trimethylsilyl)prop-2-yn-1-one]: the IC50 in the test with A431 cells (setting [6]) was determined as 4.79 µM; in test [3] (setting [7]), 5.05 µM; in test [2] (setting [8]) it was 0.064 µM.

As for `C#CC(=O)N1[C@@H](CC(C)C)Cc2cc(OC)ccc2[C@@H]1c1ccc(NC23CC4CC(CC(C4)C2)C3)cc1` [Compound B-71], the figures for the IC50 (with A431 cells (setting [5]); in test [3] (setting [9]); in test [2] (setting [4])) were 1.18 µM, 1.71 µM and 0.066 µM, respectively.

Consider `CCCC[C@H]1Cc2cc(OC)ccc2[C@@H](C23CC(F)(C2)C3)N1C(=O)C#C[Si](C)(C)C` [Compound A-10, 1-((1R,3S)-3-butyl-1-(3-fluorobicyclo[1.1.1]pentan-1-yl)-6-methoxy-3,4-dihydroisoquinolin-2(1H)-yl)-3-(trimethylsilyl)prop-2-yn-1-one], for which the results for the IC50 (in the test with A431 cells (setting [6]); in test [3] (setting [7]); in test [2] (setting [8])) were > 1 µM, > 1 µM and 0.075 µM, respectively.

Consider `CCCC[C@H]1Cc2cc(OC)ccc2[C@H](c2ccc(NC34CC5CC(CC(C5)C3)C4)cc2)N1C(=O)C#C[Si](C)(C)C` [Compound A-6, 1-((1S,3S)-1-(4-(((1s,3R)-adamantan-1-yl)amino)phenyl)-3-butyl-6-methoxy-3,4-dihydroisoquinolin-2(1H)-yl)-3-(trimethylsilyl)prop-2-yn-1-one], for which the IC50 with A431 cells (setting [6]) is > 1 µM; in test [3] (setting [7]), > 1 µM; in test [2] (setting [8]), 0.021 µM.

For `CCCC[C@H]1Cc2cc(OC)ccc2[C@H](c2ccc(NC34CC5CC(C3)CC(OC(=O)[C@@H](N)C(C)C)(C5)C4)cc2)N1C(=O)C#C[Si](C)(C)C` [Compound A-45], the figures for the IC50 (in the test on A431 cells (setting [6]); in test [3] (setting [7]); in test [2] (setting [8])) were 1.7 µM, 2.04 µM and 0.0177 µM, respectively.

Consider `C#CC(=O)N1[C@@H](CCCC)Cc2cc(OC)ccc2[C@@H]1c1ccc(NC23CC4CC(CC(O)(C4)C2)C3)cc1` [Compound B-13], for which the IC50 was 1.49 µM with A431 cells (setting [5]), 2.01 µM in test [3] (setting [9]) and 0.055 µM in test [2] (setting [4]).

On to `C#CC(=O)N1[C@@H](CCCC)Cc2cc(NC(=O)C3CCCN3)ccc2[C@@H]1c1ccc(NC23CC4CC(CC(C4)C2)C3)cc1` (some centres unmarked) [Compound B-58], for which the values for the IC50 (with A431 cells (setting [5]); in test [3] (setting [9]); in test [2] (setting [4])) were 0.856 µM, 2.36 µM and 0.011 µM, respectively.

As to `C#CC(=O)N1[C@@H](CCCC)Cc2cc(CCC(=O)O)ccc2[C@@H]1c1ccc(NC23CC4CC(CC(C4)C2)C3)cc1` [Compound B-55], the figures for the IC50 (in the test on A431 cells (setting [5]); in test [3] (setting [9]); in test [2] (setting [4])) were ≥ 10 µM, ≥ 10 µM and 0.046 µM, respectively.

On to `C#CC(=O)N1[C@@H](CCCC)Cc2cc(OC)ccc2[C@H]1c1ccc(NC(=O)C2CCC2)cc1` [Compound B-19, N-(4-((1R,3S)-3-butyl-6-methoxy-2-propioloyl-1,2,3,4-tetrahydroisoquinolin-1-yl)phenyl) cyclobutane carboxamide], for which the IC50 in test [1] is 0.52 µM; with A431 cells (setting [5]) it was 6.3 µM; in test [2] (setting [4]), 0.569 µM.

For `CCCC[C@H]1Cc2cc(OC)ccc2[C@@H](c2ccc(NC34CC5CC(CC(C5)C3)C4)c(C#N)c2)N1C(=O)C#C[Si](C)(C)C` (stereo in doubt) [Compound A-16, 2-(((3S,5S,7S)-adamantan-1-yl)amino)-5-((1R,3S)-3-butyl-6-methoxy-2-(3-(trimethylsilyl)propioloyl)-1,2,3,4-tetrahydroisoquinolin-1-yl)benzonitrile], the IC50 is ≥ 10 µM in the test on A431 cells (setting [6]), > 10 µM in test [3] (setting [7]) and 0.016 µM in test [2] (setting [8]).

As to `CCCC[C@H]1Cc2cc(OCCO)ccc2[C@H](c2ccc(NC34CC5CC(CC(C5)C3)C4)cc2)N1C(=O)C#C[Si](C)(C)C` [Compound A-44], the IC50 in the test on A431 cells (setting [6]) amounted to 2.24 µM; in test [3] (setting [7]), 2.82 µM; in test [2] (setting [8]), 0.0053 µM.

For the compound `C#CC(=O)N1[C@@H](CCCC)Cc2cc(C(N)=O)ccc2[C@@H]1c1ccc(NC23CC4CC(CC(C4)C2)C3)cc1` [Compound B-61], the IC50 in the test with A431 cells (setting [5]) turned out to be 3.54 µM; in test [3] (setting [9]), 1.28 µM; in test [2] (setting [4]) it was 0.012 µM.

As for `C#CC(=O)N1[C@@H](CCCC)Cc2cc(C#N)ccc2[C@@H]1c1ccc(NC23CC4CC(CC(C4)C2)C3)cc1` [Compound B-78], the figures for the IC50 (in the test on A431 cells (setting [5]); in test [3] (setting [9]); in test [2] (setting [4])) were 0.569 µM, 0.662 µM and 0.004 µM, respectively.

Regarding `COc1ccc2c(c1)C[C@H](CC(C)C)N(C(=O)C#C[Si](C)(C)C)[C@H]2c1ccc(NC23CC4CC(CC(C4)C2)C3)cc1` [Compound A-43], the IC50 in the test on A431 cells (setting [6]) came to 1.83 µM; in test [3] (setting [7]), 2.13 µM; in test [2] (setting [8]) it was 0.0725 µM.

`CCCC[C@H]1Cc2cc(C(F)(F)F)ccc2[C@H](c2ccc(NC34CC5CC(CC(C5)C3)C4)cc2)N1C(=O)C#C[Si](C)(C)C` [Compound A-28]: the IC50 in the test on A431 cells (setting [6]) came out at 2.94 µM; in test [3] (setting [7]), 3.58 µM; in test [2] (setting [8]) it was 0.015 µM.

Take `C#CC(=O)N1[C@@H](CCCC)Cc2cc(OC)ccc2[C@@H]1c1cc(F)c(NC23CC4CC(CC(C4)C2)C3)c(F)c1` [Compound B-82]: the IC50 worked out at 1.84 µM in the test with A431 cells (setting [5]), 1.71 µM in test [3] (setting [9]) and 0.024 µM in test [2] (setting [4]).
